Reference: patent US20220256890A1, “ANIMAL FEED SUPPLEMENT AND ANIMAL FEED COMPOSITION” (MOOTRAL INNOVATIONS LIMITED, priority 2019, published 2022)

Test system: rumen inoculum
Experiment: in vitro incubation of test materials with rumen inoculum, methane measured by micro-gas chromatograph
Format: cell-based, dairy cows
Settings: Example 2, no garlic, 24 hour incubation
Protocol: Rumen inoculum was obtained before the morning feeding from 3 rumen fistulated dairy cows on a diet composed of 50% maize silage and 50% wilted grass silage (on dry matter basis) supplemented with some straw and urea. Additionally, soybean meal and balanced compound feed were administered to fulfil the animals' requirements for milk production. Test materials were incubated in 125-mL flasks containing 25 mL of CO2-saturated bicarbonate/phosphate buffer (containing 3.58 g Na2HPO4.12H2O, 1.55 g KH2PO4, 0.124 g MgCl2.6H2O, 8.74 g NaHCO3 and 1.71 g NH4HCO3 per liter of distilled water) and rumen inoculum, in triplicate per test material (3 biological replicates). A mixture of maize silage (crude protein 65.6 g kg^−1, crude fat 27.9 g kg^−1, crude fibre 145 g kg^−1 and starch 410 g kg DM^−1), grass silage (crude protein 153 g kg^−1, crude fat 28.8 g kg^−1, crude fibre 277 g kg^−1 and sugar 78.5 g kg^−1) and dairy concentrate (crude protein 183 g kg^−1, crude fibre 29 g kg^−1 an sugar 89 g kg^−1) was used as the substrate (30/30/40, DM weight basis, 250 mg flask^−1). The test materials (garlic powder, eugenol, geranyl acetate and coriander oil) were added shortly before the incubation directly into the fluid. All flasks were incubated in a shaking incubator at 39° C. (Edmund Buhler Gmbh, Hechingen, Germany). At the end of the 24 hour incubation, flasks were removed from the incubator and placed in ice water to stop the fermentation. pH, gas pressure and gas composition were measured, and samples were collected for VFA analysis. Different amounts of garlic powder were used providing allicin doses of 0.1 mg, 0.2 mg, 0.4 mg, and 0.8 mg per flask (i.e. 4 mg/l, 8 mg/l, 16 mg/l, and 32 mg/l). A fixed concentration of 500 mg/l (i.e. 12.5 mg/flask) for the other test materials was used. Water was used as a negative control. The amount of methane gas was measured using a micro-gas chromatograph equipped with two gas chromatographic modules and a thermal conductivity detector (3000 micro-GC, Agilent, USA). Ethane (C2H6; 1 mL/flask) was used as internal standard and argon as a carrier gas for both columns. The data obtained with the test materials was normalized to a non-treated control group, i.e. samples receiving the substrate only (negative control). I.e. 100% refers to the value of the negative control. Values below 100% indicate reduction of methane as a result of the additive. Values above 100% indicate an increase in methane production. The synergism between garlic and a component of essential oil was also studied. Synergy was calculated by adding the percentage reduction of methane by garlic alone and eugenol or geranyl acetate alone and then subtracting the percentage reduction of the combination and the component of essential oil. The resulting values were inversed. […] An experiment was conducted to test the dose-dependent effects of the essential oils and the components of the essential oils. The same method and test materials of Example 1 was used in this experiment. Different amounts of garlic powder were used providing allicin doses of 0.1 mg, 0.2 mg, 0.4 mg, and 0.8 mg per flask (i.e. 4 mg/l, 8 mg/l, 16 mg/l, and 32 mg/l). The doses of eugenol, geranyl acetate, coriander oil and bornyl acetate were varied in this experiment whereby 0.25 mg/ml, 0.5 mg/ml, 0.75 mg/ml of test materials was used. Water was used as a negative control. The amount of methane produced for each reaction was measured using the same method as described in Example 1.

[1] = essential oil or component alone 0.25 mg/mL
[2] = essential oil or component alone 0.5 mg/mL
[3] = essential oil or component alone 0.75 mg/mL

Compound C=CCc1ccc(O)c(OC)c1 [Eugenol] has a production of methane [1] of 388 μmol/reaction, a production of methane [2] of 310 μmol/reaction and a production of methane [3] of 234 μmol/reaction.
For CC(=O)OC1CC2CCC1(C)C2(C)C (stereo not drawn) [Bornyl acetate], the production of methane [1] was 422 μmol/reaction, the production of methane [2] was 353 μmol/reaction and the production of methane [3] was 267 μmol/reaction.
CC(=O)OC/C=C(\C)CCC=C(C)C [Geranyl acetate] was tested, and the production of methane [1] was 436 μmol/reaction, the production of methane [2] was 327 μmol/reaction and the production of methane [3] was 203 μmol/reaction.
